Here are results for one substance from patent US20110263696A1, “PROANTHOCYANIDINS FROM CINNAMON AND ITS WATER SOLUBLE EXTRACT INHIBIT TAU AGGREGATION” (priority 2007, published 2011).

Test [1] deals with T1, tau187 (Homo sapiens, UniProt P10636).
T1 construct: his; made in house; host or cells: bacteria
Description: UV absorbance spectra, binding to tau. As to conditions: trimer 15 uM, 0-17.6 uM tau187, isosbestic point. On the procedure: FIG. 2. UV absorbance spectra of purified A-type proanthocyanidin trimer as a function of increasing tau concentration. The curves from top to bottom (at A280) are as follows: 0 uM; 4.4 uM; 8.8 uM; 17.6 uM tau^187; proanthocyanidin trimer=15 uM. As is known in the art, the isobestic points are found where the curves overlap.
As shown by the data disclosed in the various figures, proanthocyanidins bind to tau and inhibit tau aggregation. In illustrative experiments, full-length tau and an engineered truncation fragment of tau (tau187) were generated by over-expression of the recombinant human protein in bacteria followed by purification to homogeneity by conventional chromatography. […] The UV spectra display an isosbestic point consistent with a specific binding mechanism. […] In these experiments, heparin-induced aggregation of tau into PHF-like fibers is routinely monitored by four methods: 1) enhanced Thioflavin S fluorescence emission; 2) increased turbidity measured by OD350; 3) ultracentrifugation of sarkosyl-treated samples, and 4) electron microscopy. […] To ensure that proanthocyanidin molecules were not simply binding to and precipitating tau in a non-specific manner, the amount of tau that fractionated with the pellet vs. supernatant after high-speed ultracentrifugation was analyzed.

For test [2], the target named is T2, FL-tau (Homo sapiens, UniProt P10636).
T2 construct: full-length tau and an engineered truncation fragment of tau (tau187) were generated by over-expression of the recombinant human protein in bacteria; made in house; host or cells: bacteria
T2 sequence (P10636 1-441 isoform P10636-8): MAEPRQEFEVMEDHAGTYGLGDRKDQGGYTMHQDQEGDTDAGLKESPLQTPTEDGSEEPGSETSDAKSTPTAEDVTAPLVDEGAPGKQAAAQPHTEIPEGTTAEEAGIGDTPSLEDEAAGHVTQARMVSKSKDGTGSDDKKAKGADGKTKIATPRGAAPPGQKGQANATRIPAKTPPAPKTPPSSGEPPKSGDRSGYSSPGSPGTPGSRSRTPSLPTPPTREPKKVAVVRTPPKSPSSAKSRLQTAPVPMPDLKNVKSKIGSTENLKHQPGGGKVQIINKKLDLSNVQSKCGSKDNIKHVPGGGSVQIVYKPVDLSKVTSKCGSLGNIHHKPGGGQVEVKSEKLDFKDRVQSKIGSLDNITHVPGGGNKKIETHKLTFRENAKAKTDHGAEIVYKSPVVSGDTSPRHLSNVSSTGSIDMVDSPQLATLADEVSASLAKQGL
Description: Electron microscopy of FL-tau fibers. Type of test: biochemical. The settings on record: FL-tau 50 uM, heparin 0.1 mg/ml; trimer 200 uM (FIG. 3d). On the procedure:
(§1) FIG. 3. Proanthocyanidins inhibit tau aggregation. A) Turbidity assay. Aggregation of FL-tau (50 uM) was initiated with heparin (0.1 mg/ml) in 20 mM NaPO4, pH 7.0. Curve 1: no proanthocyanidin; Curve 2: 200 uM purified A-type trimer. B) After 45 min, reactions were centrifuged at 100,000 g×60 min. The amount of tau in the pellets (P) vs. supernatants (S) were examined by SDS-PAGE. Markers (top to bottom) are 97, 66, 45 kDa. C, D) EM after aggregation for 45 min. Scale bars=500 nm; C) no proanthocyanidin, D) 200 uM purified A-type trimer.
(§2) As shown by the data disclosed in the various figures, proanthocyanidins bind to tau and inhibit tau aggregation. […] In these experiments, heparin-induced aggregation of tau into PHF-like fibers is routinely monitored by four methods: 1) enhanced Thioflavin S fluorescence emission; 2) increased turbidity measured by OD350; 3) ultracentrifugation of sarkosyl-treated samples, and 4) electron microscopy. […] To ensure that proanthocyanidin molecules were not simply binding to and precipitating tau in a non-specific manner, the amount of tau that fractionated with the pellet vs. supernatant after high-speed ultracentrifugation was analyzed.

In another test the target is T3, Full-length tau (Homo sapiens, UniProt P10636).
T3 construct: full-length tau and an engineered truncation fragment of tau (tau187) were generated by over-expression of the recombinant human protein in bacteria; made in house; host or cells: bacteria
T3 sequence (P10636 1-441 isoform P10636-8): as above
Description: Ultracentrifugation and SDS-PAGE of pellet vs supernatant, full-length tau. Type of test: biochemical. The settings on record: 200 uM trimer; 45 min; 100,000 g x 60 min (FIG. 3b). On the procedure:
as §1
FIG. 4. Cinnamon extract inhibits tau aggregation. […] Samples were then treated with 1% sarkosyl for 1 hr, centrifuged (105,000 g×1 hr), and the pellets (P) versus supernatants (S) then analyzed by SDS-PAGE. […]
as §2

For test [3], the target named is T2, FL-tau. In words: Turbidity assay of heparin-induced aggregation, FL-tau. Format: biochemical. As to conditions: FL-tau 50 uM, heparin 0.1 mg/ml, pH 7.0; trimer 200 uM (FIG. 3a). As to the method: as §1, §2
Test [4] addresses T1, tau187. Description: Electron microscopy of tau187 fibers. The settings on record: tau187 50 uM, heparin 0.1 mg/ml; trimer 200 uM (FIG. 6). Format: biochemical. As to the method:
FIG. 6. […] Aggregation of tau^187 (50 uM) was initiated with heparin (0.1 mg/ml) in 20 mM NaPO4, pH 7.0. in the presence of: no proanthocyanidin (left panel), or 200 uM purified A-type trimer (right panel). Scale: Bars=500 nm
FIG. 13. Effect of oxidized cinnamon on tau filament formation. […] Left panel: no cinnamon; right panel 10 μM oxidized cinnamon.
FIG. 15A. […] 50 μM Tau^187 was incubated with 0.11 mg/ml heparin (18 kDa) at 23° C. Aggregation was monitored by turbidity (OD350). Cinnamaldehyde was present at a final concentration of 0, 50 and 100 μM. FIG. 15B. Electron microscopy of tau fibers in the presence of cinnamaldehyde (CA). Tau fibers were visualized by electron microscopy after 5 hrs of aggregation in the presence of: 0 CA (left panel); B) 100 uM CA (right panel). […] FIG. 15 C. Trans-cinnamaldehyde chemical structure.
Two hexapeptide motifs in tau are critical for tau aggregation and fiber formation (see, e.g. von Bergen et al., Proc Nad Acad Sci USA 97, 5129-34 (2000)). These motifs lie in the first and second inter-repeat regions of the MT binding domain (FIG. 5), and it is known that engineered truncation fragments of tau that contain these motifs often undergo aggregation into fibers even more efficiently than the full-length molecule (see, e.g. Barghorn et al., Biochemistry 41, 14885-96 (2002)). […]

T1 sequence (P10636 572-758 limits assumed): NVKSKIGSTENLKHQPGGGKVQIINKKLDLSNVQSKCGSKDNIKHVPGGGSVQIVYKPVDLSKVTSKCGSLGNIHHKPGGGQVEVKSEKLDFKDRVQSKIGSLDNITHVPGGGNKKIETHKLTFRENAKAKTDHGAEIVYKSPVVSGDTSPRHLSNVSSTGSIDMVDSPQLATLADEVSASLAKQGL

Consider “A-linked proanthocyanidin trimer [A-type trimer]”, for which the results for the “Binding to tau by change in UV absorbance spectrum” value at tau187 [1] and on tau187 [1] (listed as proanthocyanidin A) were “displays affinity for monomeric tau” and “binds directly to tau”, respectively. In addition, the “FL-tau fibers by EM after aggregation for 45 min” value at FL-tau [2] is “short fibers that were very much less abundant”. For the same substance, the “Tau in pellet vs supernatant after ultracentrifugation” value at Full-length tau is “remain in the soluble fraction”. Also, on FL-tau [3], the “Inhibition of FL-tau aggregation (turbidity)” value is reported as “dramatically inhibited”. Also, the “Inhibition of tau187 aggregation by EM” value at tau187 [4] was “effectively inhibited”.
